Source: paper PMC6010122 (Journal of Enzyme Inhibition and Medicinal Chemistry, 2017)
Where two headings read alike, the source gives them in different places.

Legend:
[1] = molecular target: Bcr-Abl^WT (Homo sapiens, UniProt P00519); format: biochemical
[2] = tested on: K562 xenograft; conditions: mouse, in vivo, po, 10 mg/kg/day
[3] = tested on: HFL-1 (human embryonic lung fibroblasts); parameters: method as in PMID 26940138; conditions: human embryonic lung fibroblasts ref 26; read-out: Antiproliferative IC50, HFL-1 non-cancer cells; cited from earlier work
[4] = tested on: Ba/F3^WT cells; test: Cellular antiproliferation assay (CCK-8), Ba/F3 expressing Bcr-Abl^WT; format: cell-based, murine; conditions: Mus musculus, read-out: Antiproliferation IC50, Ba/F3^WT
[5] = tested on: K562R (Q252H) cells; test: Cellular antiproliferation assay (CCK-8), imatinib-resistant K562R (Q252H); format: cell-based; conditions: Homo sapiens, K-562R, read-out: Antiproliferation IC50, K562R (Q252H)
[6] = tested on: Ba/F3^T315I cells; format: cell-based, murine; conditions: Mus musculus, read-out: Antiproliferation IC50, Ba/F3^T315I
[7] = tested on: K562 cells; test: Cellular antiproliferation assay (CCK-8), K562; format: cell-based; conditions: Homo sapiens, read-out: Antiproliferation IC50, K562
[8] = tested on: K562 xenograft; test: Subcutaneous K562 xenograft model of human CML
[9] = tested on: activation of Bcr-Abl, Crkl and STAT5 in K562 CML cells; test: Western blot of Bcr-Abl signaling in K562 cells; format: cell-based, human; conditions: 4.0 h treatment
Method: The Western blot analysis was carried out by following the protocol described previously. Briefly, after the indicated treatment, cell lysates were collected, dissolving cells in 1× SDS sample lysis buffer. After being sonicated and boiled, the supernatant of the cell lysate was used for Western blot analysis. Cell lysates were loaded to 8–12% SDS-PAGE and separated by electrophoresis. Separated proteins were then electrically transferred to a PVDF film. After being blocked with 1× TBS containing 0.1% Tween-20, and 5% nonfat milk, the film was incubated with corresponding primary antibody followed by HRP-conjugated secondary antibody. The protein lanes were visualized using ECL Western Blotting Detection Kit (GE Healthcare, Piscataway, NJ).
Figure 3. […] Cells were treated with GZD856 at the indicated concentrations for 4.0 h, and whole cell lysates were then subjected to Western blot analyses. The results represent three independent experiments.

[10] = tested on: U937 cells; test: Cellular antiproliferation assay (CCK-8), U937; format: cell-based; conditions: Homo sapiens, read-out: Antiproliferation IC50, U937
[11] = tested on: MOLT-4 cells; test: Cellular antiproliferation assay (CCK-8), MOLT-4; format: cell-based; conditions: Homo sapiens, read-out: Antiproliferation IC50, MOLT-4

Sequence of Bcr-Abl^WT (P00519 27-1130): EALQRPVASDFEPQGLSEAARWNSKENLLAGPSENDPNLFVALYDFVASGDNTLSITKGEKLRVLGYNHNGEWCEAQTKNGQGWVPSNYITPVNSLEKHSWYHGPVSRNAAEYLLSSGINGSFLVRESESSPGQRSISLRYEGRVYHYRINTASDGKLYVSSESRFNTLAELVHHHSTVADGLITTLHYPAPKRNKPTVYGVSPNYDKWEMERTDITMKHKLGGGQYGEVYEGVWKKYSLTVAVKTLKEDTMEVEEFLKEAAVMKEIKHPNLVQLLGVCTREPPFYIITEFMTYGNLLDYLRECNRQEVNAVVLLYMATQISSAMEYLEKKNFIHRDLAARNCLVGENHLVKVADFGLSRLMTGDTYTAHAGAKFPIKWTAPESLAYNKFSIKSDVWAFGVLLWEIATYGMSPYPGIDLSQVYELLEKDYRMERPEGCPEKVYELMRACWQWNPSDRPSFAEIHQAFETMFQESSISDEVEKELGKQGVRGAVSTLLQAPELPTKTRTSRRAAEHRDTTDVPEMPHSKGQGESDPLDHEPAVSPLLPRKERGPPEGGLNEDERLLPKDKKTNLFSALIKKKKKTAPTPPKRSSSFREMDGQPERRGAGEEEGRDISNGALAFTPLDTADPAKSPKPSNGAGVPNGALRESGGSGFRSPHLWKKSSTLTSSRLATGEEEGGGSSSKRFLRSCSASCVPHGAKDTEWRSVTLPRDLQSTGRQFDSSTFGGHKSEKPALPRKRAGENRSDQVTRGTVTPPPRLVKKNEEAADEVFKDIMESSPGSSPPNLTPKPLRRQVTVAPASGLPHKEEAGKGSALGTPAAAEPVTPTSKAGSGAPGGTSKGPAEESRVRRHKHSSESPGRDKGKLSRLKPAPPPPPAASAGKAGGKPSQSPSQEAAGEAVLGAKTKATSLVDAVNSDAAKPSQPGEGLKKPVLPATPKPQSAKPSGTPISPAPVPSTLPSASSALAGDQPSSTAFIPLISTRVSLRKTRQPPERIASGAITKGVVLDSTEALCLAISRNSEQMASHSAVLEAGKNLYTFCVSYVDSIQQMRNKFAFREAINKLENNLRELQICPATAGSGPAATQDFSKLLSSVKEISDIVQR

In the case of Cc1ccc(C(=O)Nc2ccc(CN3CCN(C)CC3)c(C(F)(F)F)c2)cc1C#Cc1cnc2ccnn2c1 [GZD856, 4-Methyl-N-(4-((4-methylpiperazin-1-yl)methyl)-3-(trifluoromethyl)phenyl)-3-(pyrazolo[1,5-a]pyrimidin-6-ylethynyl)benzamide], the IC50 [1] is given as 19.9 nM, the Tolerability during treatment [2] is given as “well tolerated with no mortality” and the IC50 [3] is given as 6780 nM. For the same compound, the IC50 ([4]; BaF3, CCK-8, 72 h) was 0.64 nM, the IC50 ([5]; CCK-8, 72 h) was 67 nM and the IC50 ([6]; BaF3, CCK-8, 72 h) was 10.8 nM. For the same compound, the IC50 ([7]; K562, CCK-8, 72 h) was 2.2 nM, the “Body loss relative to vehicle-matched controls” value ([8]; K562 xenograft mice, oral 10 mg/kg/day, during the treatment) was less than 5% and the “Tumor recurrence after cessation of treatment” value ([8]; K562 xenograft, 10 mg/kg/day, 16 days of dosing, following 7 days) was “no sign of tumor recurrence”. The “Antitumor effect on tumor” value ([8]; K562 xenograft, oral 10 mg/kg/day, after 8 days of treatment) was “almost completely eradicated the tumor” and the “Suppression of activation of Bcr-Abl and downstream Crkl and STAT5” value [9] was “efficiently suppressed the activation”.
With Cc1ccc(NC(=O)c2ccc(CN3CCN(C)CC3)cc2)cc1Nc1nccc(-c2cccnc2)n1 [Imatinib, imatinib] the “Antitumor effect on tumor” value ([8]; K562 xenograft, oral 50 mg/kg/day) was “only induced tumor stasis”.
Compound Cc1cn(-c2cc(NC(=O)c3ccc(C)c(Nc4nccc(-c5cccnc5)n4)c3)cc(C(F)(F)F)c2)cn1 [Nilotinib] has an IC50 ([10]; U-937, 72 h) of 9520 nM, an IC50 ([4]; BaF3, 72 h) of 22 nM and an IC50 ([5]; 72 h) of 350 nM. For the same compound, the IC50 ([6]; BaF3, 72 h) was 1460 nM, the IC50 ([7]; K562, 72 h) was 6.5 nM and the IC50 ([11]; MOLT-4, 72 h) was 20400 nM.
With Cc1ccc(C(=O)Nc2ccc(CN3CCN(C)CC3)c(C(F)(F)F)c2)cc1C#Cc1cnc2cccnn12 [Ponatinib, 3-[2-(imidazo[1,2-b]pyridazin-3-yl)ethynyl]-4-methyl-N-{4-[(4-methyl-piperazin-1-yl)methyl]-3-(trifluoromethyl)phenyl}benzamide] the IC50 ([10]; U-937, 72 h) was 1 nM, the IC50 ([7]; K562, 72 h) was 0.5 nM and the IC50 ([11]; MOLT-4, 72 h) was 7.8 nM.
CC(=O)O[C@H]1C(=O)[C@@]2(C)[C@H]([C@H](OC(=O)c3ccccc3)[C@]3(O)C[C@H](OC(=O)[C@H](O)[C@@H](NC(=O)c4ccccc4)c4ccccc4)C(C)=C1C3(C)C)[C@]1(OC(C)=O)CO[C@@H]1C[C@@H]2O [Taxol] showed an IC50 ([10]; U-937, CCK-8, 72 h, negative for Bcr-Abl expression) of 2.3 nM, an IC50 ([5]; CCK-8, 72 h) of 7 nM and an IC50 ([7]; K562, CCK-8, 72 h) of 5.1 nM. It also gave an IC50 ([11]; MOLT-4, CCK-8, 72 h, negative for Bcr-Abl expression) of 2.7 nM.
